According to patent US20090299049A1, “Bicyclic Compounds and Their Use” (priority 2006, published 2009):

Key:
T7 RNA polymerase = T7 RNA polymerase (Escherichia phage T7, UniProt P00573); test: Gel-based in vitro transcription assay with the ATP analogue as substrate; type: biochemical, bacteriophage T7; settings: for Length of RNA products observed: Mg^2+ co-factor, analogue in place of ATP
Description: (§1) In vitro assays of hepatitis C virus (HCV) and bacteriophage T7 RNA polymerases have been performed using adenosine ribonucleotide triphosphate analogues of the present invention as a substrate (in place of natural ATP). Both unincorporated and incorporated fluorescent purine ribonucleotide analogues could be visualised directly under UV trans-illumination in either agarose or polyacrylamide gels without ethidium bromide staining. The RNA products generated in the transcription assay were characterised by 6% or 20% polyacrylamide gel electrophoresis (PAGE) under denaturing (7 M urea) conditions. […] The expected full-length (˜500 bases) RNA products were not observed by denaturing 6% PAGE. Short RNA products were separated by denaturing 20% PAGE. […] The analogues are also incorporated at a slower rate than the natural substrates. Incorporation of the first and second adenosine (underlined adenosine residues in the Table below) into the RNA product occurs with two templates tested, but adjacent adenosine analogues terminate transcription before the third adenosine in each template is incorporated. Two adjacent adenosine analogues may be too large for the active site, thus RNA synthesis is terminated and the product released.
RNA products formed using the HCV 3′-UTR and T7 φ13 promoter DNA templates in gel-based transcription assays of T7 RNA polymerase and 8-phenylethynyl-adenosine triphosphate: […]

HCV RNA polymerase = biological target: T1, HCV RNA polymerase (Hepatitis C virus genotype 1a, UniProt P27958); test: In vitro RNA polymerase assay with the ATP analogue as substrate; type: biochemical
T1 construct: results with HCV and T7 RNA polymerases using 8-phenylethynyl-adenosine triphosphate as a substrate
Description: as §1

[1] = Optical properties: UV-visible spectra, fluorescence excitation and emission; type: physicochemical; settings: for Stokes shift: (1/λex − 1 λem); for λem: fluorescence emission wavelength; for λex: fluorescence excitation wavelength
Description: The optical properties of several novel chromophores were investigated. UV-visible spectra reveal an intense absorption in the UV region for all the compounds evaluated.

[2] = UV absorbance and fluorescence of ribonucleoside analogues in DMSO (molar extinction coefficient, quantum yield); type: physicochemical; settings: for Quantum yield: relative to quinine sulphate and anthracene standards
Description: UV absorbance and fluorescence excitation and emission data were used to determine the molar extinction coefficient and fluorescence quantum yield of a several adenosine and guanosine ribonucleoside analogues in DMSO (see the Table below). The data acquired support the concept that the fluorescence properties of these analogues can be tuned by altering the electron-donating or electron-withdrawing R-group on the terminal phenylalkyne. Fourteen electron-donating or electron-withdrawing R-groups were coupled to purine bases at the 8-position. […] This makes the analogues extremely useful for the quantification of analogue-containing nucleic acid products in a DNA or RNA background. […] The position (ortho, meta or para) of the R-group on the phenyl ring can also be used to tune the fluorescent properties of the analogues. The ring position of the R-group has a smaller effect on the fluorescent properties of the analogues. Greater changes in the excitation/emission wavelength, molar extinction coefficient and quantum yield can be induced by changing the type of R-group (electron-donating vs. electron-withdrawing) as compared to the position of a R-group on the phenyl ring (ortho, meta or para). The quantum yields of the unphosphorylated analogues were measured relative to quinine sulphate and anthracene standards. […] This provides additional support for the idea that the purine bases can both push and pull electrons in π-conjugated systems.

[3] = Mg^2+ as co-factor, depending on DNA template

Sequence of T7 RNA polymerase (P00573 whole entry): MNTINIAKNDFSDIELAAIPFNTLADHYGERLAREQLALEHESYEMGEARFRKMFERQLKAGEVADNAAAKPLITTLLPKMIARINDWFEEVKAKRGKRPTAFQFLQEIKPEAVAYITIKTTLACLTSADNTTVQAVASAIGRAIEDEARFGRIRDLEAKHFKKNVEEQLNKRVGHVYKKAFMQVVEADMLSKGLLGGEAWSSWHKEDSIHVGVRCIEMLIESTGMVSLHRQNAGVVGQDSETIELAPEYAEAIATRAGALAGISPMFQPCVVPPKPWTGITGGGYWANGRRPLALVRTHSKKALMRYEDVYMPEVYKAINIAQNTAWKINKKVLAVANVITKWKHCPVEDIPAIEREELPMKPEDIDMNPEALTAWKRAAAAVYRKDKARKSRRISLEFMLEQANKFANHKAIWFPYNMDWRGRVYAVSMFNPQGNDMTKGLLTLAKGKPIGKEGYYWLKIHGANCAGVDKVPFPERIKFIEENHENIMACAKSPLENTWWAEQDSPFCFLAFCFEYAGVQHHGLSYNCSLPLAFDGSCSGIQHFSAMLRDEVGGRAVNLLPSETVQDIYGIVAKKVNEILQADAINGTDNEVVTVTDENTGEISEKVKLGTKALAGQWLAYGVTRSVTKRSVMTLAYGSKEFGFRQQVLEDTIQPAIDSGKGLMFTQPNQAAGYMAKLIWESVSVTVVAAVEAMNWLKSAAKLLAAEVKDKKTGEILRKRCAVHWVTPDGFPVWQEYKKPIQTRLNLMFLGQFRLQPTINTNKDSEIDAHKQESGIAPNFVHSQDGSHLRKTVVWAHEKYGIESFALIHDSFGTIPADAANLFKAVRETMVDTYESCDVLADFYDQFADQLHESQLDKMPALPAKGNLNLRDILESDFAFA
T1 sequence (P27958 2421-3011): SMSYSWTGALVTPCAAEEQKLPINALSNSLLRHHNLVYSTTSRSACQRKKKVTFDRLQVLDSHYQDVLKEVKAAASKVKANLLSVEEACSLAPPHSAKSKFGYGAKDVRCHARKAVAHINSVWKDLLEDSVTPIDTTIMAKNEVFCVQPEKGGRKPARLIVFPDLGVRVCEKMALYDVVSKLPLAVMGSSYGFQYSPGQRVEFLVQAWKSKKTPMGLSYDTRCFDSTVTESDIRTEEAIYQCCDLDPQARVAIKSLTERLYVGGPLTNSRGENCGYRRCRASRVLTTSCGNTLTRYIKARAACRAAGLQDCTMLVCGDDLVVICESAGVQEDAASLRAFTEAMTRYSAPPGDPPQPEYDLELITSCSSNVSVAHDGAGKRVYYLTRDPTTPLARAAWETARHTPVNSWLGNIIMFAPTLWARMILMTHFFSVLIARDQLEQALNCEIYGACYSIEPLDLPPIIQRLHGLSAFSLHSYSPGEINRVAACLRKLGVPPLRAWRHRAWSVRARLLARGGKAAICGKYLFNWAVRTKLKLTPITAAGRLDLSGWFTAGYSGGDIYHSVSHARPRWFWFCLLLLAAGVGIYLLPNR

Stokes shift [1] | Absorption maxima shift relative to compound 7a (parent) ([1]; compared with the guanosine series) | λem [1] | λex [1] | Molar absorption coefficient [2] | Wavelength at fluorescence emission maximum [2] | Wavelength at maximum in UV absorption [2] | Quantum yield [2] | melting point | Structure (SMILES) | Length of RNA products observed (T7 RNA polymerase; HCV 3′-UTR DNA template) | RNA transcripts yielded with analogue as substrate (T7 RNA polymerase; [3]) | Length of RNA products observed (T7 RNA polymerase; T7 φ13 promoter DNA template) | Expected full-length (˜500 bases) RNA products (T7 RNA polymerase; denaturing 6% PAGE) | Length of small RNA products into which the analogue is incorporated (T7 RNA polymerase; denaturing 20% PAGE) | RNA transcripts yielded with analogue as substrate (HCV RNA polymerase; [3]) | Expected full-length (˜500 bases) RNA products (HCV RNA polymerase; denaturing 6% PAGE)
– | – | – | – | – | – | – | – | – | Nc1ncnc2c1nc(C#Cc1ccccc1)n2[C@@H]1O[C@H](COP(=O)(O)OP(=O)(O)OP(=O)(O)O)[C@@H](O)[C@H]1O [8-phenylethynyl-adenosine triphosphate] | 6 mer, 9 mer | short RNA transcripts | 4 mer, 6 mer | not observed | 4-9 bases | short RNA transcripts | not observed
1933 cm⁻¹ | more significant differences | 380 nm | 354 nm | 18176 M⁻¹ cm⁻¹ | 380 nm | 326 nm | 24% | 198 to 202 °C (dec.) | COc1ccc(C#Cc2nc3c(N)ncnc3n2[C@@H]2O[C@H](CO)[C@@H](O)[C@H]2O)cc1 [Compound 6c, 8-(4-methoxyphenylethynyl)-adenosine] | – | – | – | – | – | – | –
1921 cm⁻¹ | – | 396 nm | 368 nm | 26019 M⁻¹ cm⁻¹ | – | 338 nm | 67% | 184 to 188 °C (dec.) | CSc1ccc(C#Cc2nc3c(N)ncnc3n2[C@@H]2O[C@H](CO)[C@@H](O)[C@H]2O)cc1 [Compound 6d, 8-(4-Methylsulfanylphenylethynyl)adenosine] | – | – | – | – | – | – | –
4897 cm⁻¹ | – | 440 nm | 362 nm | – | 436 nm | 333 nm | 8.8% | 196 to 198 °C (dec.) | Nc1ncnc2c1nc(C#Cc1ccc(C(F)(F)F)cc1)n2[C@@H]1O[C@H](CO)[C@@H](O)[C@H]1O [Compound 6g, 8-(4′-Trifluoromethylphenylethynyl)adenosine] | – | – | – | – | – | – | –
